Patent publication US8367727B2, “Method of using abscisic acid to treat diseases and disorders” (priority 2006, dated 2013)
Marks after values point to notes of the source that are not given here.

What was measured:
CD8+ T cells = assay: CFSE flow cytometry proliferation assay, Concanavalin A-stimulated splenocytes, CD8+ T cells; assay type: cell-based, mice; conditions: 100 mg ABA/kg diet; first 4 generations
Protocol: Single cell suspensions were prepared from the spleen by gently crushing the spleens excised during the necropsy procedure between the frosted ends of microscope glass slides previously autoclaved. Tissue debris were removed by settling, erythrocytes were eliminated by hypotonic lysis and cells finally resuspended in complete RPMI (cRPMI, 10% fetal bovine serum (Hyclone, Logan, Utah), 25 mM HEPES buffer (Sigma, St. Louis, Mo.), 100 units/ml penicillin (Sigma), […] streptomycin (Sigma), 1 mM sodium pyruvate (Sigma), 1 mM nonessential aminoacids (Sigma), and 2 mM essential amino acids (Mediatech), and enumerated with a Coulter Z1 Single Particle Counter (Beckman Coulter, Miami, Fla.). […]
Splenocytes at 10^6 cells/ml were seeded in 96-well, round-bottom microtiter plates and incubated incomplete RPMI with or without Concanavalin A (Sigma) at 2.5 μg/ml. […] Following 2 washes in Fluorescence activated cell sorting (FACS) buffer, cells were incubated with streptavidin-PeCy5 (Pharmingen, San Diego, Calif.) for the biotinylated anti-mouse CD4 antibody. Cells were analyzed by 3-color flow cytometry (CFSE, phycoerythrin and PeCy5) in a FACScalibur instrument (Becton Dickinson). Ten thousand events were acquired, and data were analyzed using the Cell Quest Pro™ software (Becton Dickinson). Proliferation was assessed by the decrease in fluorescent intensity of CFSE staining. […]

MCP-1 promoter = MCP-1 promoter luciferase reporter in 3T3-L1 pre-adipocytes; assay type: cell-based
Protocol: 3T3-L1 cells (American Type Culture Collection, Manassas, Va.) were grown in 24-well plates in DMEM high glucose medium (Invitrogen, Carlsbad, Calif.) containing 10% fetal bovine serum (FBS) until 60-70% confluence. Before transfection, the medium was changed to 1% FBS. The cells cultured in 24-well plates were co-transfected with 0.8 μg plasmid DNA and 1 ng of pRL reporter control plasmid per well using F-1 transfection reagents (Targeting Systems, Santee, Calif.) according to the manufacturer's protocol. Transfection efficiencies were determined by cotransfecting the cells with a pcDNA™ 3.1/His/lacZ control vector at 24 h. The transfected cells were then treated with either a racemic ABA mixture (12.5 μM; Sigma) or rosiglitazone (1 μM; Cayman Chemicals, Ann Arbor, Mich.) for 24 hours. Designated wells were also treated with the PPAR γ antagonist GW9662 (30 μM; Cayman Chemicals). Transfected cells were harvested in reporter lysis reagent. Luciferase activity, normalized to pRL activity in the cell extracts was determined by using the dual luciferase reporter assay system (Promega, Madison, Wis.) in a TD-20/20 Single-Tube Luminometer (Turner Biosystems, Sunnyvale, Calif.). Relative luciferase activity (RLA) was calculated as a ratio of the chemiluminescence 10 seconds after the Luciferase Assay Reagent II (Promega) was added over the chemiluminescence 10 seconds after the Stop&Glo Reagent (Promega).
To further examine the effect of ABA on MCP-1 transactivation, 3T3-L1 preadipocytes were transfected with a MCP-1 promoter luciferase reporter construct and also cotransfected with a pCMX PPAR γ expression plasmid to increase endogenous PPAR γ activity. Cells were then treated with ABA (12.5 μM), rosiglitazone (1 μM), the PPAR γ antagonist GW9662 (30 μM), or a combination of agonist and inhibitor.

influenza virus antigens = assay: Antigen-specific T cell response after immunization with inactivated influenza virus vaccine; assay type: cell-based; conditions: ABA-fed mice (controls 5)
PPAR γ = biological target: T1, PPAR γ (Mus musculus, UniProt P37238); conditions: ABA 12.5 μM, rosiglitazone 1 μM; previously found (ref 48); cited from earlier work
T1 construct: expressed in transfected cells; host or cells: 3T3-L1 pre-adipocytes (ATCC)
T1 sequence (P37238 1-505): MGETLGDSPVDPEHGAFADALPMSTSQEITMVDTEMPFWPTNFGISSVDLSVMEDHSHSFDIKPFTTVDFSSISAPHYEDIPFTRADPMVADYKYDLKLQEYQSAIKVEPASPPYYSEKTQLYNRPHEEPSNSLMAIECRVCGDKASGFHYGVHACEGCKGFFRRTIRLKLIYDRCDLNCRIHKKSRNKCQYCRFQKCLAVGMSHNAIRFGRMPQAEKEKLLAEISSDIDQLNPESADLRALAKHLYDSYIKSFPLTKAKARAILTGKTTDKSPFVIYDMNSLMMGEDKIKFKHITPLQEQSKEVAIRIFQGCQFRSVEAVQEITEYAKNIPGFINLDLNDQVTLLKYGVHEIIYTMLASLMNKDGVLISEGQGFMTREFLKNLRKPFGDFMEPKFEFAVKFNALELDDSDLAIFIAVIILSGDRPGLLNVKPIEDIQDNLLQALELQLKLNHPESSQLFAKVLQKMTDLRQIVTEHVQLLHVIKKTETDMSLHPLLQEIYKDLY

[1] = test system: dextran sodium sulfate (DSS)-induced colitis; assay: DSS-induced colitis in C57BL/6J mice: disease activity, macroscopic scores, histopathology; assay type: in vivo
Protocol: Six to eight week old C57BL/6J mice (n=20) and were housed at the animal facilities at Virginia Polytechnic Institute and State University in a room maintained at 75° F., with a 12:12 h light-dark cycle starting from 6:00 AM. All experimental procedures were approved by the Institutional Animal Care and Use Committee of Virginia Polytechnic Institute and State University and met or exceeded requirements of the Public Health Service/National Institutes of Health and the Animal Welfare Act. C57BL/6J mice were fed AIN-93G-based diets with or without 100 mg/kg of a racemic ABA mixture for 35 days prior to induction of colitis with water containing 2.5% dextran sodium sulfate (DSS), […] (ICN Biomedicals, Aurora, Ohio). After the DSS challenge mice were weighed on a daily basis and examined for clinical signs of disease associated with colitis (i.e., perianal soiling, rectal bleeding, diarrhea, and piloerection). For the DSS challenge, the disease activity indices and rectal bleeding scores were calculated using a modification of a previously published compounded clinical score (50). Briefly, the disease activity index consisted of a scoring for diarrhea and lethargy (0-3), whereas rectal bleeding consisted of a visual observation of blood in feces and the perianal area (0-4). Mice in the DSS study were euthanized on day 7 of the DSS challenge. On day 7 blood mice were euthanized by CO2 asphyxiation and blood was withdrawn from the heart. Spleen and mesenteric lymph nodes (MLN) were scored based on size and macroscopic inflammatory lesions (0-3), excised, and then crushed to produce single-cell suspensions for flow cytometry.
Colonic sections were fixed in 10% buffered neutral formalin, later embedded in paraffin, and then sectioned (5 μm) and stained with H&E stain for histologic examination. Colons were graded with a compounded histologic score including the extent of (1) lymphocyte infiltration, (2) mucosal thickening, and (3) epithelial cell erosion. The sections were graded with a score of 0-4 for each of the previous categories and data were analyzed as a normalized compounded score.

SMILES: CC1=CC(=O)CC(C)(C)C1(O)/C=C/C(C)=C\C(=O)O (racemic) [ABA, abscisic acid]
- CD8+ T cells RPI1 (CD8+ T cells): 5.261*
- MCP-1 promoter activity (MCP-1 promoter; ABA 12.5 μM, rosiglitazone 1 μM, co-transfection with PPAR γ expression vector): significantly enhanced the ability of both ABA and rosiglitazone to inhibit MCP-1 promoter activity
- effects on MCP-1 transactivation under cotreatment with antagonist (MCP-1 promoter; plus GW9662 30 μM): significantly inhibited by cotreatment with GW9662
- production of interleukin-2 (IL-2) (influenza virus antigens): 31.67 picograms IL-2/ml of cell supernatant
- PPAR γ transactivation, comparison of the two agonists (PPAR γ): equally effective
- disease activity index (DAI) ([1]; 100 mg/kg diet 35 days, then 7 days 2.5% DSS): significantly reduced disease activity index
- body weight loss ([1]; DSS challenge, ABA vs control): no significant differences in body weight loss
- Epithelial erosion ([1]; colon histology, DSS colitis): significantly reduced
- leukocyte infiltration ([1]; colon histology, DSS colitis): significantly reduced
- mucosal thickening ([1]; colon histology, DSS colitis): significantly reduced
- colonic inflammation, macroscopic score ([1]; day 7 of DSS): significantly reduced colonic inflammation
- spleen or MLN macroscopic score ([1]; day 7 of DSS): no significant effect on the spleen or MLN
